Source: US11591341B2 (ALIGOS THERAPEUTICS, INC., priority 2019, dated 2023)

System: HBV
Assay: HBV-DNA Antiviral Assay Using HepG2.117 Cells (intracellular HBV DNA by qPCR)
Assay type: cell-based, hepatitis B virus (genotype D)
Conditions: Hepatitis B virus, HepG2.117
How it was run: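 Endpoint: qPCR copy number of intracellular HBV DNA after 3-day compound exposure, with inhibition set relative to the 2% DMSO control. The cells were doxycycline-free HepG2.117 carrying a Tet-off genotype D genome, dosed at nine 4-fold dilutions. A duplicate plate gave ATP-based viability (CC50).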

Q: With COc1ccc(-n2c(C(=O)N[C@H](C)C3CC3)c3n(c2=O)CCN(C(=O)c2ccc(Cl)c(Cl)c2)C3)cc1 (racemic) [Example 95, 7-(3,4-dichlorobenzoyl)-2-(4-methoxyphenyl)-3-oxo-N-[rac-(1R)-1-cyclopropylethyl]-6,8-dihydro-5H-imidazo[1,5-a]pyrazine-1-carboxamide] as the molecule, how does the EC50 read?
A: Its EC50 is over 5000 nM.

Q: Which EC50 does the source give for CC(NC(=O)c1c2n(c(=O)n1-c1ccc(OC3CC3)cc1)CCN(C(=O)c1ccc(Br)c(Cl)c1)C2)c1cccc2nccnc12 (racemic) [Example 382, 7-(4-bromo-3-chloro-benzoyl)-2-[4-(cyclopropoxy)phenyl]-3-oxo-N-[rac-(1S)-1-quinoxalin-5-ylethyl]-6,8-dihydro-5H-imidazo[1,5-a]pyrazine-1-carboxamide] here?
A: Its EC50 is under 100 nM.

Q: With C[C@@H](NC(=O)c1c2n(c(=O)n1-c1ccc(OC3CCC3)cc1)CCN(C(=O)c1ccc(Br)c(Cl)c1)C2)c1ccccc1 (stereo in doubt) [Example 137, 7-(4-bromo-3-chloro-benzoyl)-2-[4-(cyclobutoxy)phenyl]-3-oxo-N-[rac-(1R)-1-phenylethyl]-6,8-dihydro-5H-imidazo[1,5-a]pyrazine-1-carboxamide] as the molecule, how does the EC50 read?
A: Its EC50 is 100 to 500 nM.

Q: For COc1ccc([C@H](C)NC(=O)c2c3n(c(=O)n2-c2ccc(-n4cccn4)cc2)CCN(C(=O)c2ccc(Br)c(Cl)c2)C3)cc1 [Example 442, 7-(4-bromo-3-chloro-benzoyl)-N-[(1S)-1-(4-methoxyphenyl)ethyl]-3-oxo-2-(4-pyrazol-1-ylphenyl)-6,8-dihydro-5H-imidazo[1,5-a]pyrazine-1-carboxamide], which EC50 is on record?
A: The EC50 was 100 to 500 nM.

Q: With O=C(NCc1cccc2nccnc12)c1c2n(c(=O)n1-c1ccc(OCC(F)(F)F)cc1)CCN(C(=O)c1ccc(Br)c(Cl)c1)C2 [Example 277, 7-(4-bromo-3-chloro-benzoyl)-3-oxo-N-(quinoxalin-5-ylmethyl)-2-[4-(2,22,- trifluoroethoxy)phenyl]-6,8-dihydro-5H-imidazo[1,5-a]pyrazine-1-carboxamide] as the molecule, how does the EC50 read?
A: Its EC50 is under 100 nM.

Q: Which EC50 does the source give for C[C@@H]1Cn2c(c3n(c2=O)C[C@H](F)CN(Cc2ccccc2)C3=O)CN1C(=O)c1ccc(Br)c(Cl)c1 (stereo in doubt) [Example 374, rac-(5R,11R)-13-benzyl-4-(4-bromo-3-chloro-benzoyl)-11-fluoro-5-methyl-4,7,9,13-tetrazatricyclo[7.5.0.0^2,7]tetradec-1-ene-8,14-dione] here?
A: Its EC50 is 100 to 500 nM.

Q: With CC(C)Oc1ccc(-n2c(C(=O)NCc3ccc(CO)cc3)c3n(c2=O)CCN(C(=O)c2ccc(Br)c(Cl)c2)C3)cc1 [Example 221, 7-(4-bromo-3-chloro-benzoyl)-N-[[4-(hydroxymethyl)phenyl]methyl]-2-(4-isopropoxyphenyl)-3-oxo-6,8-dihydro-5H-imidazo[1,5-a]pyrazine-1-carboxamide] as the molecule, how does the EC50 read?
A: Its EC50 is over 5000 nM.

Q: Which EC50 does the source give for COc1ccc(-n2c(C(=O)NCc3cccc(F)c3)c3n(c2=O)CCN(C(=O)c2ccc(Br)c(Cl)c2)C3)cc1 [Example 125, 7-(4-bromo-3-chloro-benzoyl)-N-[(3-fluorophenyl)methyl]-2-(4-methoxyphenyl)-3-oxo-6,8-dihydro-5H-imidazo[1,5-a]pyrazine-1-carboxamide] here?
A: The EC50 was 100 to 500 nM.

Q: Which EC50 does the source give for COc1ccc(-n2c(C(=O)NCc3ccccc3F)c3n(c2=O)CCN(C(=O)c2ccc(Br)c(Cl)c2)C3)cc1 [Example 181, 7-(4-bromo-3-chloro-benzoyl)-N-[(2-fluorophenyl)methyl]-2-(4-methoxyphenyl)-3-oxo-6,8-dihydro-5H-imidazo[1,5-a]pyrazine-1-carboxamide] here?
A: Its EC50 is 100 to 500 nM.

Q: Which EC50 does the source give for O=C(NCc1ccccc1-c1ccccn1)c1c2n(c(=O)n1-c1ccc(OCC(F)(F)F)cc1)CCN(C(=O)c1ccc(Br)c(Cl)c1)C2 [Example 370, 7-(4-bromo-3-chloro-benzoyl)-3-oxo-N-[[2-(2-pyridyl)phenyl]methyl]-2-[4-(2,2,2-trifluoroethoxy)phenyl]-6,8-dihydro-5H-imidazo[1,5-a]pyrazine-1-carboxamide] here?
A: The EC50 was under 100 nM.

Q: Which EC50 does the source give for CC1Cn2c(c(C(=O)NCc3ccccc3-n3cc(F)cn3)n(-c3ccc(OC4CC4)cc3)c2=O)CN1C(=O)c1ccc(Br)c(Cl)c1 (racemic) [Example 440, rac-(6S)-7-(4-bromo-3-chloro-benzoyl)-2-[4-(cyclopropoxy)phenyl]-N-[[2-(4-fluoropyrazol-1-yl)phenyl]methyl]-6-methyl-3-oxo-6,8-dihydro-5H-imidazo[1,5-a]pyrazine-1-carboxamide] here?
A: Its EC50 is under 100 nM.

Q: For COc1ccc(CN2CCCCn3c(c4n(c3=O)CCN(C(=O)c3ccc(Br)c(Cl)c3)C4)C2=O)cc1 [Example 135, 4-(4-bromo-3-chloro-benzoyl)-14-[(4-methoxyphenyl)methyl]-4,7,9,14-tetrazatricyclo[7.6.0.0^2,7]pentadec-1-ene-8.15-dione], which EC50 is on record?
A: Its EC50 is 500 to 5000 nM.

Q: CNC(=O)c1cccc(-n2c(C(=O)NCc3ccccc3)c3n(c2=O)CCN(C(=O)c2ccc(Br)c(Cl)c2)C3)c1 [Example 48, N-benzyl-7-(4-bromo-3-chloro-benzoyl)-2-[3-(methylcarbamoyl)phenyl]-3-oxo-6,8-dihydro-5H-imidazo[1,5-a]pyrazine-1-carboxamide] was tested. Which EC50 did it give?
A: The EC50 was 500 to 5000 nM.

Q: With O=C(NCc1ccccc1-c1ncccn1)c1c2n(c(=O)n1-c1ccc(OCC(F)(F)F)cc1)CCN(C(=O)c1ccc(Br)c(Cl)c1)C2 [Example 377, 7-(4-bromo-3-chloro-benzoyl)-3-oxo-N-[(2-pyrimidin-2-ylphenyl)methyl]-2-[4-(2,2,2-trifluoroethoxy)phenyl]-6,8-dihydro-5H-imidazo[1,5-a]pyrazine-1-carboxamide] as the molecule, how does the EC50 read?
A: The EC50 was under 100 nM.

Q: With COc1cc(C#N)ccc1CNC(=O)c1c2n(c(=O)n1-c1ccc(OCC(F)(F)F)cc1)CCN(C(=O)c1ccc(Br)c(Cl)c1)C2 [Example 249, 7-(4-bromo-3-chloro-benzoyl)-N-[(4-cyano-2-methoxy-phenyl)methyl]-3-oxo-2-[4-(2,2,2-trifluoroethoxy)phenyl]-6,8-dihydro-5H-imidazo[1,5-a]pyrazine-1-carboxamide] as the molecule, how does the EC50 read?
A: The EC50 was 100 to 500 nM.

Q: For O=C1COc2ccc(CNC(=O)c3c4n(c(=O)n3-c3ccc(OC5CC5)cc3)CCN(C(=O)c3ccc(Br)c(Cl)c3)C4)cc2N1 [Example 431, 7-(4-bromo-3-chloro-benzoyl)-2-[4-(cyclopropoxy)phenyl]-3-oxo-N-[(3-oxo-4H-1,4-benzoxazin-6-yl)methyl]-6,8-dihydro-5H-imidazo[1,5-a]pyrazine-1-carboxamide], which EC50 is on record?
A: Its EC50 is 500 to 5000 nM.

Q: CC(C)Oc1ccc(-n2c(C(=O)N[C@H](C)c3ccc(C#N)cc3)c3n(c2=O)CCN(C(=O)c2ccc(Br)c(Cl)c2)C3)cc1 (stereo in doubt) [Example 233, 7-(4-bromo-3-chloro-benzoyl)-2-(4-isopropoxyphenyl)-3-oxo-N-[rac-(1R)-1-(4-cyanophenyl)ethyl]-6,8-dihydro-5H-imidazo[1,5-a]pyrazine-1-carboxamide] was tested. Which EC50 did it give?
A: The EC50 was 100 to 500 nM.

Q: COc1ccc([C@H](C)NC(=O)c2c3n(c(=O)n2-c2ccc(OC4CC4)cc2)CCN(C(=O)c2ccc(Br)c(Cl)c2)C3)cc1 [Example 443, 7-(4-bromo-3-chloro-benozyl)-2-[4-(cyclopropoxy)phenyl]-N-[(1S)-1-(4-methoxyphenyl)ethyl]-3-oxo-6,8-dihydro-5H-imidazo[1,5-a]pyrazine-1-carboxamide] was tested. Which EC50 did it give?
A: Its EC50 is 100 to 500 nM.

Q: Which EC50 does the source give for COc1ccc(CNC(=O)c2c3n(c(=O)n2-c2ccc(-n4cccn4)cc2)CCN(C(=O)c2ccc(Br)c(Cl)c2)C3)c(F)c1 [Example 459, 7-(4-bromo-3-chloro-benzoyl)-N-[(2-fluoro-4-methoxy-phenyl)methyl]-3-oxo-2-(4-pyrazol-1-ylphenyl)-6,8-dihydro-5H-imidazo[1,5-a]pyrazine-1-carboxamide] here?
A: The EC50 was 100 to 500 nM.

Q: COc1ccc(CN2Cc3c4n(c(=O)n3C[C@H](O)C2)CCN(C(=O)c2ccc(Br)c(Cl)c2)C4)c(F)c1 (stereo in doubt) [Example 288, rac-(11R)-4-(4-bromo-3-chloro-benzoyl-13-[(2-fluoro-4-methoxy-phenyl)methyl]-11-hydroxy-4,7,9,13-tetrazatricyclo[7.5.0.0^2,7]tetradec-1-ene-8,14-dione] was tested. Which EC50 did it give?
A: The EC50 was 100 to 500 nM.

Q: Which EC50 does the source give for COc1ccc(-n2c(C(=O)NCc3ccc(C(C)C)cc3)c3n(c2=O)CCN(C(=O)c2ccc(Br)c(Cl)c2)C3)cc1 [Example 142, 7-(4-bromo-3-chloro-benzoyl)-N-[(4-isopropylphenyl)methyl]-2-(4-methoxyphenyl)-3-oxo-6,8-dihydro-5H-imidazo[1,5-a]pyrazine-1-carboxamide] here?
A: The EC50 was 100 to 500 nM.

Q: CC(C)Oc1ccc(-n2c(C(=O)NCc3ccccc3)c3n(c2=O)CCN(C(=O)c2ccc(Br)c(Cl)c2)C3)cc1 [Example 184, N-benzyl-7-(4-bromo-3-chloro-benzoyl)-2-(4-isopropoxyphenyl)-3-oxo-6,8-dihydro-5H-imidazo[1,5-a]pyrazine-1-carboxamide] was tested. Which EC50 did it give?
A: Its EC50 is 100 to 500 nM.

Q: How did the EC50 turn out when N#CCOc1ccc(CNC(=O)c2c3n(c(=O)n2-c2ccc(OC4CC4)cc2)CCN(C(=O)c2ccc(Br)c(Cl)c2)C3)c(F)c1 [Example 323, 7-(4-bromo-3-chloro-benzoyl)-N-[[4-(cyanomethoxy)-2-fluoro-phenyl]methyl]-2-[4-(cyclopropoxy)phenyl]-3-oxo-6,8-dihydro-5H-imidazo[1,5-a]pyrazine-1-carboxamide] was run?
A: Its EC50 is 100 to 500 nM.

Q: With O=C1CCc2cc(-n3c(C(=O)NCc4ccccc4)c4n(c3=O)CCN(C(=O)c3ccc(Br)c(Cl)c3)C4)ccc2N1 [Example 403, N-benzyl-7-(4-bromo-3-chloro-benzoyl)-3-oxo-2-(2-oxo-3,4-dihydro-1H-quinolin-6-yl)-6,8-dihydro-5H-imidazo[1,5-a]pyrazine-1-carboxamide] as the molecule, how does the EC50 read?
A: The EC50 was 500 to 5000 nM.

Q: With CC(C)Oc1ccc(-n2c(C(=O)NCc3ccc(C#N)cc3F)c3n(c2=O)CCN(C(=O)c2ccc(Br)c(Cl)c2)C3)cc1 [Example 212, 7-(4-bromo-3-chloro-benzoyl)-N-[(4-cyano-2-fluoro-phenyl)methyl]-2-(4-isopropoxyphenyl)-3-oxo-6,8-dihydro-5H-imidazo[1,5-a]pyrazine-1-carboxamide] as the molecule, how does the EC50 read?
A: Its EC50 is 100 to 500 nM.
